{
  "source": "patent US5756545A",
  "about": "“Biphenysulfonamide matrix metal alloproteinase inhibitors” (priority 1997, dated 1998)",
  "data": [
    {"molecular_target": "T1, stromelysin catalytic domain (Homo sapiens, UniProt P08254)", "T1 construct": "stromelysin catalytic domain hydrolysis of thiopeptolide", "T1 sequence (P08254 100-272 limits assumed)": "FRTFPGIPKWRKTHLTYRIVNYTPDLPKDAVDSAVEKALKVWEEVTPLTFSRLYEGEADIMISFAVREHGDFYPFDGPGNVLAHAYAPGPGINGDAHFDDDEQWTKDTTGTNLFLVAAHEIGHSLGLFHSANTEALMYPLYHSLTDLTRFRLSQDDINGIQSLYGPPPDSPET", "experiment": "stromelysin catalytic domain hydrolysis of thiopeptolide, SCD (T)", "assay_type": "biochemical", "conditions": "thiopeptolide substrate", "text": "(§1) Table I below presents inhibitory activity for representative invention compounds of Formula I. In the table, GA CD (T) refers to gelatinase A-catalytic domain hydrolysis of thiopeptolide substrate; GA CD (Gel) refers to gelatinase A-catalytic domain hydrolysis of gelatin substrate; SCD (T) refers to stromelysin catalytic domain hydrolysis of thiopeptolide.", "units": {"IC50": "µM"}, "values": [
      {"smiles": "CC(C)[C@H](NS(=O)(=O)c1ccc(-c2ccc(C(F)(F)F)cc2)cc1)C(=O)O", "note": "[Example 19, (S)-3-Methyl-2-(4'-trifluoromethyl-biphenyl-4-sulfonylamino)-butyric Acid]", "IC50": 0.014}
    ]},
    {"molecular_target": "T2, full-length collagenase (Homo sapiens, UniProt P03956)", "T2 construct": "full-length collagenase hydrolysis of thiopeptolide substrate (FLC)", "T2 sequence (P03956 100-469)": "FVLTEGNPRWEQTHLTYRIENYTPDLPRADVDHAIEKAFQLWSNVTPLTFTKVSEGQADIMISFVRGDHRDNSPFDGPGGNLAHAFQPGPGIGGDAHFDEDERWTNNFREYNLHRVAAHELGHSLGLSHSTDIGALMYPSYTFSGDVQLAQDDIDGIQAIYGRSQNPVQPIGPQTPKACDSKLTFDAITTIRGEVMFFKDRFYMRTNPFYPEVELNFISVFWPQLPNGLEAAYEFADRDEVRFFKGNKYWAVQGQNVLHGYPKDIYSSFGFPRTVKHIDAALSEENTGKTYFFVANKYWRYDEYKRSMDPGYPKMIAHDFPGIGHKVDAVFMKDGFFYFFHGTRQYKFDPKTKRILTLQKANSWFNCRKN", "experiment": "full-length collagenase hydrolysis of thiopeptolide substrate (FLC)", "assay_type": "biochemical", "conditions": "full-length enzyme", "text": "The compounds were additionally evaluated for their ability to inhibit full-length collagenase hydrolysis of thiopeptolide substrate (FLC) and full-length gelatinase B (FLGB) hydrolysis of thiopeptolide.", "units": {"IC50": "µM"}, "values": [
      {"smiles": "CC(C)[C@H](NS(=O)(=O)c1ccc(-c2ccc(Cl)cc2)cc1)C(=O)O", "note": "[Example 2, (S)-2-(4'-Chloro-biphenyl-4-sulfonylamino)-3-methyl-butyric Acid]", "IC50": 7.5}
    ]},
    {"molecular_target": "gelatinase A-catalytic domain", "experiment": "gelatinase A catalytic domain hydrolysis of thiopeptolide, GA CD (T)", "assay_type": "biochemical", "conditions": "thiopeptolide substrate", "text": "as §1", "units": {"IC50": "µM"}, "values": [
      {"smiles": "CC(C)[C@H](NS(=O)(=O)c1ccc(-c2ccc(F)cc2)cc1)C(=O)O", "note": "[Example 16, (S)-2-(4'-Fluoro-biphenyl-4-sulfonylamino)-3-methyl-butyric Acid]", "IC50": 0.051},
      {"smiles": "O=C(O)CNS(=O)(=O)c1ccc(-c2ccc(Br)cc2)cc1", "note": "[Example 12, (4'-Bromo-biphenyl-4-sulfonylamino)-acetic Acid]", "IC50": 0.021},
      {"smiles": "O=C(O)[C@H](Cc1ccccc1)NS(=O)(=O)c1ccc(-c2ccc(Br)cc2)cc1", "note": "[Example 10, (S)-2-(4'-Bromo-biphenyl-4-sulfonylamino)-3-phenyl-propionic Acid]", "IC50": 0.026},
      {"smiles": "CC(C)[C@H](NS(=O)(=O)c1ccc(-c2cccc(Br)c2)cc1)C(=O)O", "note": "[Example 7, (S)-2-(3'-Bromo-biphenyl-4-sulfonylamino)-3-methyl-butyric Acid]", "IC50": 0.731},
      {"smiles": "CC(C)[C@H](NS(=O)(=O)c1ccc(-c2ccc(Br)cc2F)cc1)C(=O)O", "note": "[Example 8, (S)-2-(4'-Bromo-2'-fluoro-biphenyl-4-sulfonylamino)-3-methyl-butyric Acid]", "IC50": 0.006},
      {"smiles": "CC(C)C[C@H](NS(=O)(=O)c1ccc(-c2ccc(Br)cc2)cc1)C(=O)O", "note": "[Example 14, (S)-2-(4'-Bromo-biphenyl-4-sulfonylamino)-4-methyl-pentanoic Acid]", "IC50": 0.015},
      {"smiles": "CC(C)[C@H](NS(=O)(=O)c1ccc(-c2ccc(C#N)cc2)cc1)C(=O)O", "note": "[Example 5, (S)-2-(4'-Cyano-biphenyl-4-sulfonylamino)-3-methyl-butyric Acid]", "IC50": 0.032},
      {"smiles": "COc1ccc(-c2ccc(S(=O)(=O)N[C@H](C(=O)O)C(C)C)cc2)cc1", "note": "[Example 15, (S)-2-(4'-Methoxy-biphenyl-4-sulfonylamino)-3-methyl-butyric Acid]", "IC50": 0.002},
      {"smiles": "C[C@H](NS(=O)(=O)c1ccc(-c2ccc(Br)cc2)cc1)C(=O)O", "note": "[Example 13, (S)-2-(4'-Bromo-biphenyl-4-sulfonylamino)-propionic Acid]", "IC50": 0.019}
    ]},
    {"molecular_target": "gelatinase A-catalytic domain", "experiment": "gelatinase A catalytic domain hydrolysis of gelatin, GA CD (Gel)", "assay_type": "biochemical", "conditions": "gelatin substrate", "text": "as §1", "units": {"IC50": "µM"}, "values": [
      {"smiles": "CC(C)[C@H](NS(=O)(=O)c1ccc(-c2ccc(F)cc2)cc1)C(=O)O", "note": "[Example 16, (S)-2-(4'-Fluoro-biphenyl-4-sulfonylamino)-3-methyl-butyric Acid]", "IC50": 0.094},
      {"smiles": "O=C(O)CNS(=O)(=O)c1ccc(-c2ccc(Br)cc2)cc1", "note": "[Example 12, (4'-Bromo-biphenyl-4-sulfonylamino)-acetic Acid]", "IC50": 0.079},
      {"smiles": "O=C(O)[C@H](Cc1ccccc1)NS(=O)(=O)c1ccc(-c2ccc(Br)cc2)cc1", "note": "[Example 10, (S)-2-(4'-Bromo-biphenyl-4-sulfonylamino)-3-phenyl-propionic Acid]", "IC50": 0.045},
      {"smiles": "CC(C)[C@H](NS(=O)(=O)c1ccc(-c2cccc(Br)c2)cc1)C(=O)O", "note": "[Example 7, (S)-2-(3'-Bromo-biphenyl-4-sulfonylamino)-3-methyl-butyric Acid]", "IC50": 1.3},
      {"smiles": "CC(C)[C@H](NS(=O)(=O)c1ccc(-c2ccc(Br)cc2F)cc1)C(=O)O", "note": "[Example 8, (S)-2-(4'-Bromo-2'-fluoro-biphenyl-4-sulfonylamino)-3-methyl-butyric Acid]", "IC50": 0.019},
      {"smiles": "CC(C)C[C@H](NS(=O)(=O)c1ccc(-c2ccc(Br)cc2)cc1)C(=O)O", "note": "[Example 14, (S)-2-(4'-Bromo-biphenyl-4-sulfonylamino)-4-methyl-pentanoic Acid]", "IC50": 0.029},
      {"smiles": "CC(C)[C@H](NS(=O)(=O)c1ccc(-c2ccc(C#N)cc2)cc1)C(=O)O", "note": "[Example 5, (S)-2-(4'-Cyano-biphenyl-4-sulfonylamino)-3-methyl-butyric Acid]", "IC50": 0.157},
      {"smiles": "COc1ccc(-c2ccc(S(=O)(=O)N[C@H](C(=O)O)C(C)C)cc2)cc1", "note": "[Example 15, (S)-2-(4'-Methoxy-biphenyl-4-sulfonylamino)-3-methyl-butyric Acid]", "IC50": 0.014},
      {"smiles": "C[C@H](NS(=O)(=O)c1ccc(-c2ccc(Br)cc2)cc1)C(=O)O", "note": "[Example 13, (S)-2-(4'-Bromo-biphenyl-4-sulfonylamino)-propionic Acid]", "IC50": 0.022}
    ]}
  ]
}
